Structures are written as SMILES.

In assay [1] the test system is PSMA-expressing prostate cancer cells (LNCaP-wt, PC3-hPSMA) and PC3-wt. The experiment in a line: Cytoplasmic calcium quantification (Fluo4 assay). The format is cell-based, human. The protocol: Cells were seeded at a density of 10,000 per well on a 96-well plate and grown overnight. Loading of the calcium-sensing dye Fluo4 (Life Technologies, Calrsbad, Calif.) was performed according to the manufacturer's instructions. Where indicated the cells were treated with thapsigargin (1 μM, Tocris, Minneapolis, Minn.), L-Quisqualic acid (110 μM, Tocris), 3,5-DHPG (0.67 mM, Tocris), L-AP3 (125 μM, Tocris), U73122 (50 μM, Tocris), and 2-PMPA (100 μM, Tocris) immediately before measuring calcium levels, with a SpectraMax M5 plate reader (Molecular Devices, Sunnyvale, Calif.).
The effect of PSMA expression on calcium homeostasis in prostate cancer cell lines was evaluated using the fluorimetric Fluo4 assay kit (Invitrogen), according to the supplier's instructions. The plate was excited at 490 nm, and fluorescence emission was monitored at 520 nm with the SpectraMax M5 plate reader (Molecular Devices). […] To examine calcium accumulation in the cytoplasm, the cells were treated with thapsigargin (1 μM, Tocris) immediately prior to taking measurements with the plate reader. […] Furthermore, we investigated whether PSMA facilitates calcium signaling via the mGluR Group I receptors through its enzymatic activity. The cells were treated with either L-Quisqualic acid (110 μM; mGluR I agonist, Tocris), L-AP3 (125 μM; mGluR I antagonist, Tocris) or a PSMA inhibitor (100 μM, Tocris), immediately prior to taking calcium measurements.

Assay [2] relates to LNCaP, LNCaP-KD, PC3-PSMA and PC3-wt cells. Briefly: In vitro chemotherapy, cell viability (Alamar blue). As to conditions: 200 nM, overnight. How it is done: Cells were seeded in a 96-well format (2,500 cells per well), and grown for 48 h. They were then treated with the following drugs at a final concentration of 200 nM: Doxorubicin, Taxol, AZD6244, BEZ235, Lapatinib, and Velcade (all purchased from Selleck Chemicals, Houston, Tex.). For combination therapy, cells were treated with 2-PMPA (5 μM final concentration). After overnight incubation in the presence of the drugs, cell viability was determined with the Alamar blue method according to the supplier's guidelines (Life Technologies, Carlsbad, Calif.)
Given that PSMA affects the phosphorylation status of multiple targets, it was investigated whether inhibition of PSMA can counteract resistance to various chemotherapeutics used in the clinic or under clinical trials. LNCaP and PCS3-PSMA cells were seeded at a density of 2,500 cells per well in a 96-well format, and after 48 hours growth the cells were treated with the drugs (Doxorubicin (Adriamycin; DNA intercalator), Taxol (Paclitaxel; microtubule stabilizer), AZD6244 (Selumetinib; MEK1 & ERK1/2 inhibitor), BEZ235 (Dactolisib; PI3K & mTOR inhibitor), Lapatinib (EGFR and ErbB2 inhibitor), or Velcade (Bortezomib; 20S proteasome inhibitor), 200 nM final concentration in 1×PBS) or with the drugs (200 nM final concentration) and 2-PMPA (5 μM final concentration). After overnight incubation, cell viability was assessed fluorimetrically with the Alamar blue method (Invitrogen), according to the supplier's protocol.
For orientation: Alamar Blue is a resazurin reagent that responds to reducing activity.

Regarding `N[C@@H](CP(=O)(O)O)C(=O)O` [L-AP3], the cytoplasmic calcium levels result in assay [1] (PSMA-expressing cells, PSMA inhibitor 100 μM, L-AP3 125 μM, FIG. 1c) is on record as “lowered calcium levels”. Regarding `COc1ccc2c(c1)CC[C@@H]1[C@@H]2CC[C@]2(C)[C@@H](NCCCCCCN3C(=O)C=CC3=O)CC[C@@H]12` [U73122], the cytoplasmic calcium levels entry in assay [1] (PSMA inhibition compared with Phospholipase C inhibitor U73122 50 μM, FIG. 1d) was “reduction in calcium levels”.

Regarding `CC(C)C[C@H](NC(=O)[C@H](Cc1ccccc1)NC(=O)c1cnccn1)B(O)O` [Velcade, Bortezomib], the “sensitivity of PC3-wt cells compared with PC3-PSMA” value in assay [2] is reported as “more sensitive”. For `C/C=C(/C)C(=O)O[C@H]1C(C)=C2[C@H]([C@@H]1OC(=O)CCCCCCC)[C@@](C)(OC(C)=O)C[C@H](OC(=O)CCC)[C@@]1(O)[C@H]2OC(=O)[C@@]1(C)O` [thapsigargin], in assay [1] (thapsigargin 1 μM, PSMA-expressing cells versus PC3-wt, FIG. 1b), the “calcium accumulation in the cytoplasm” value is reported as “significant buildup of calcium in their cytoplasm”.
